Starred links: 1 amine or outer side, 2 acyl side, 3 side chain; linkers in the order of their positions; H or OH if unused. Non-standard residues stand in square brackets, D forms with d. Residues, ends and D or L forms follow the SMILES beside them. Groups on a side chain read outwards from the residue. ξ: configuration not given here. *: point of attachment. C20 diacid = O=C(O)CCCCCCCCCCCCCCCCCCC(=O)*; γGlu = O=C(O)[C@H](CCC(=O)[*:2])N[*:1]; αMeL = CC(C)C[C@](C)(N)C(=O)O; αMeK = C[C@](N)(CCCCN)C(=O)O; ξαMeL = CC(C)CC(C)(N)C(=O)O; AEEA = NCCOCCOCC(=O)O; Aib = CC(C)(N)C(=O)O
Tests used:
[1] = biological target: T1, human GLP-1R (Homo sapiens, UniProt P43220); test: cAMP HTRF agonist activity assay in CHO-K1 cells expressing GLP-1R; assay type: cell-based
T1 construct: expressed in transfected cells; host or cells: CHO-K1 clonal cell line
T1 sequence (P43220 24-463): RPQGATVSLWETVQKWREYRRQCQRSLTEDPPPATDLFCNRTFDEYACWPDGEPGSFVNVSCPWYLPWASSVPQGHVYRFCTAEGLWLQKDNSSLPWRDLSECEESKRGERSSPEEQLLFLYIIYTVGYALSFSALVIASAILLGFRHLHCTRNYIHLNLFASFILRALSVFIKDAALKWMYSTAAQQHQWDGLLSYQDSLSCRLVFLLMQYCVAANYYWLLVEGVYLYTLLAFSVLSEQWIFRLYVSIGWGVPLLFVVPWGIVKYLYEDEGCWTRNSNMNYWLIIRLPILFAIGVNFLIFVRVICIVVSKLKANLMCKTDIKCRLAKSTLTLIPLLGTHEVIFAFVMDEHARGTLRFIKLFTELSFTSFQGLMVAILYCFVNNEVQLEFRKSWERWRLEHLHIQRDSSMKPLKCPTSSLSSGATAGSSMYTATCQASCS
Experimental: (§1) Functional activity was determined in CHO-K1 clonal cell lines expressing GIPR, GLP-1R, and GCGR. […] Each recipient cell (5000 cells/well) was added to an SV 96-well plate (Cisbio, 66PL96025) and incubated with the prepared polypeptide at 37°Cfor 30 min. The resulting increase in intracellular cAMP was quantitatively measured using the cAMP-GS dynamic HTRF assay kit (Cisbio, 62AM4PEJ). Briefly, the intracellular cAMP levels were determined by adding cAMP-d2 conjugate in cell lysis buffer, followed by the antibody anti-cAMP-Eu cryptate (also in cell lysis buffer).
(§2) Using the maximum response percentage vs. the added polypeptide concentration, the relative EC50 values were derived through nonlinear regression analysis and fitted to a four-parameter logarithmic equation. For specific data, refer to Tables 7-1 to 7-8 below. […]

[2] = biological target: T2, human GIPR (Homo sapiens, UniProt P48546); test: cAMP HTRF agonist activity assay in CHO-K1 cells expressing GIPR; assay type: cell-based; conditions: read-out: Activity against human GIPR (EC50 nM); also: 5% FBS, 0.1% Casein
T2 construct: expressed in transfected cells; host or cells: CHO-K1 clonal cell line
T2 sequence (P48546 22-466): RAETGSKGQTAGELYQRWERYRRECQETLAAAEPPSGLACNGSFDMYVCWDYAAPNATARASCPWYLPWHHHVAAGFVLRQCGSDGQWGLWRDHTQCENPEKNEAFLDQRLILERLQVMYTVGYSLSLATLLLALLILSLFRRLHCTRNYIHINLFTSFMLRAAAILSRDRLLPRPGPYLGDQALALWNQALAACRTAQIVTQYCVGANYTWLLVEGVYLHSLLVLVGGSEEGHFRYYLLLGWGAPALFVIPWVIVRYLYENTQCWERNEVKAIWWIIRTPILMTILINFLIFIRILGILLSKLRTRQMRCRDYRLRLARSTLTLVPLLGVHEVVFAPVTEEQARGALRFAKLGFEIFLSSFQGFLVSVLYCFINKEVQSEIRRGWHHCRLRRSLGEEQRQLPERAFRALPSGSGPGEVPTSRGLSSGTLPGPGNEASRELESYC
Experimental: as §1, §2

[3] = Pharmacokinetics in mice after single intravenous injection; parameters: species or system C57 mice; conditions: male, C57, mouse, in vivo, iv
Experimental: Male C57 mice were used as test animals. The target compound was administered via a single intravenous injection, and the pharmacokinetic characteristics of the compound in C57 mice in vivo (plasma) were determined.
Male C57 mice, weighing approximately 25g, aged 4-6 weeks. After preparing the polypeptide compound solution using 1×PBS dissolving solution, the compound was administered intravenously at a dose of 200 nmol/kg, where each compound was administered to 3 animals. Blood samples of 60 µL were collected at 5 min, 15 min, 0.5 h, 1 h, 2 h, 4 h, 6 h, 24 h, 48 h and 72 h after the infusion was completed and transferred to centrifuge tubes containing EDTA-K2 anticoagulant. Whole blood samples were centrifuged at 4000 g for 5 min at 4°C. Plasma was separated and plasma samples were frozen and stored at -80 °C.
Sample pretreatment method: 30 µL of plasma samples was taken, and 120 µL of 0.1% formic acid in methanol containing 1 ng/mL internal standard verapamil was added. The mixture was vortexed for 5 min, and centrifuged at 10000 rpm for 10 min at low temperature. 70 µL of supernatant was taken, and 70 µL of water was added and mixed well. Analysis was performed by LC-MS instrument.
LC-MS analysis method: (1) chromatographic conditions: mobile phases A and B: 0.1% formic acid in water and 0.1% formic acid in acetonitrile, respectively; gradient elution mode; flow rate: 0.5 mL/min; injection volume: 10 µL; chromatographic column: nanomicro Unisil C18aq (4.6 mm × 150 mm, 5 µm); column temperature: 40°C. (2) Mass spectrometry conditions: For mass spectrometry, an electrospray ionization source (ESI), positive ion analysis mode, and multiple reaction monitoring (MRM) scanning mode were used.
For data processing, SCIEX OS (Version 2.1.6) software was used to quantify blood drug concentration data and PKSolver (Version 2.0) software was used to calculate pharmacokinetic parameters.

Compound | EC50 [1] | EC50 [2] | clearance [3] | half-life [3]
CC[C@H](C)[C@H](NC(=O)[C@H](CC(C)C)NC(=O)[C@H](Cc1c[nH]c2ccccc12)NC(=O)[C@H](CCC(=O)O)NC(=O)[C@@H](NC(=O)[C@H](Cc1ccccc1)NC(=O)[C@H](CCC(=O)O)NC(=O)[C@H](CCC(N)=O)NC(=O)[C@H](C)NC(=O)[C@H](C)NC(=O)[C@H](CCCCN)NC(=O)[C@H](CCCCNC(=O)COCCOCCNC(=O)COCCOCCNC(=O)CC[C@H](NC(=O)CCCCCCCCCCCCCCCCCCC(=O)O)C(=O)O)NC(=O)[C@H](CCC(=O)O)NC(=O)[C@H](CC(C)C)NC(=O)[C@H](Cc1ccc(O)cc1)NC(=O)[C@](C)(CCCCN)NC(=O)[C@H](CO)NC(=O)[C@H](Cc1ccc(O)cc1)NC(=O)[C@H](CC(=O)O)NC(=O)[C@H](CO)NC(=O)[C@@H](NC(=O)[C@H](Cc1ccccc1)NC(=O)[C@@H](NC(=O)CNC(=O)[C@H](Cc1c[nH]cn1)NC(=O)C(C)(C)NC(=O)[C@@H](N)Cc1c[nH]cn1)[C@@H](C)O)[C@@H](C)O)C(C)C)C(=O)N[C@@H](CCC(=O)O)C(=O)NCC(=O)NCC(=O)N1CCC[C@H]1C(=O)N[C@@H](CO)C(=O)N[C@@H](CO)C(=O)NCC(=O)N[C@@H](C)C(=O)N1CCC[C@H]1C(=O)N1CCC[C@H]1C(=O)N1CCC[C@H]1C(=O)N[C@@H](CO)C(N)=O [Compound 0115] (H-H[Aib]HGTFTSDYS[αMeK]YLEK([AEEA-AEEA-γGlu-C20 diacid])KAAQEFVEWLIEGGPSSGAPPPS-NH2) | 23 pM | – | – | –
CC(C)C[C@H](NC(=O)[C@H](CC(C)C)NC(=O)[C@H](Cc1c[nH]c2ccccc12)NC(=O)[C@H](CCC(=O)O)NC(=O)[C@@H](NC(=O)[C@H](Cc1ccccc1)NC(=O)[C@H](CCC(=O)O)NC(=O)[C@H](CCC(N)=O)NC(=O)[C@H](CCC(N)=O)NC(=O)[C@H](C)NC(=O)[C@H](CCCCN)NC(=O)[C@H](CCCCNC(=O)COCCOCCNC(=O)COCCOCCNC(=O)CC[C@H](NC(=O)CCCCCCCCCCCCCCCCCCC(=O)O)C(=O)O)NC(=O)[C@H](CCC(=O)O)NC(=O)[C@H](CC(C)C)NC(=O)[C@H](Cc1ccc(O)cc1)NC(=O)[C@](C)(CCCCN)NC(=O)[C@H](CO)NC(=O)[C@H](Cc1ccc(O)cc1)NC(=O)[C@H](CC(=O)O)NC(=O)[C@H](CO)NC(=O)[C@@H](NC(=O)[C@H](Cc1ccccc1)NC(=O)[C@@H](NC(=O)CNC(=O)[C@H](Cc1c[nH]cn1)NC(=O)C(C)(C)NC(=O)[C@@H](N)Cc1c[nH]cn1)[C@@H](C)O)[C@@H](C)O)C(C)C)C(=O)N[C@@H](C)C(=O)NCC(=O)NCC(=O)N1CCC[C@H]1C(=O)N[C@@H](CO)C(=O)N[C@@H](CO)C(=O)NCC(=O)N[C@@H](C)C(=O)N1CCC[C@H]1C(=O)N1CCC[C@H]1C(=O)N1CCC[C@H]1C(=O)N[C@@H](CO)C(N)=O [Compound 0113] (H-H[Aib]HGTFTSDYS[αMeK]YLEK([AEEA-AEEA-γGlu-C20 diacid])KAQQEFVEWLLAGGPSSGAPPPS-NH2) | 32 pM | – | – | –
CC[C@H](C)[C@H](NC(=O)[C@H](CO)NC(=O)[C@H](CC(C)C)NC(=O)[C@H](CC(=O)O)NC(=O)[C@H](CO)NC(=O)[C@@H](NC(=O)[C@H](Cc1ccccc1)NC(=O)[C@@H](NC(=O)CNC(=O)[C@H](Cc1c[nH]cn1)NC(=O)C(C)(C)NC(=O)[C@@H](N)Cc1c[nH]cn1)[C@@H](C)O)[C@@H](C)O)C(=O)N[C@@H](CC(C)C)C(=O)N[C@@H](CC(C)C)C(=O)N[C@@H](CCC(=O)O)C(=O)N[C@@H](CCCCNC(=O)COCCOCCNC(=O)COCCOCCNC(=O)CC[C@H](NC(=O)CCCCCCCCCCCCCCCCCCC(=O)O)C(=O)O)C(=O)N[C@@H](CCC(N)=O)C(=O)N[C@@H](C)C(=O)N[C@@H](C)C(=O)NC1(C(=O)N[C@@H](CCC(=O)O)C(=O)N[C@@H](Cc2ccccc2)C(=O)N[C@H](C(=O)N[C@@H](CCC(=O)O)C(=O)N[C@@H](Cc2c[nH]c3ccccc23)C(=O)N[C@@H](CC(C)C)C(=O)N[C@@H](CC(C)C)C(=O)N[C@@H](C)C(=O)N[C@H](CCC(=O)O)C(=O)NCC(=O)N2CCC[C@H]2C(=O)N[C@@H](CO)C(=O)N[C@@H](CO)C(=O)NCC(=O)N[C@@H](C)C(=O)N2CCC[C@H]2C(=O)N2CCC[C@H]2C(=O)N2CCC[C@H]2C(=O)N[C@@H](CO)C(N)=O)C(C)C)CCC1 [Compound 0145] | – | 0.003 nM | 7.74 mL/h/kg | 7.7 h
CC[C@H](C)[C@H](NC(=O)[C@H](CO)NC(=O)[C@H](CC(C)C)NC(=O)[C@H](CC(=O)O)NC(=O)[C@H](CO)NC(=O)[C@@H](NC(=O)[C@H](Cc1ccccc1)NC(=O)[C@@H](NC(=O)CNC(=O)[C@H](Cc1c[nH]cn1)NC(=O)C(C)(C)NC(=O)[C@@H](N)Cc1c[nH]cn1)[C@@H](C)O)[C@@H](C)O)C(=O)N[C@@](C)(CC(C)C)C(=O)N[C@@H](CC(C)C)C(=O)N[C@@H](CCC(=O)O)C(=O)N[C@@H](CCCCNC(=O)COCCOCCNC(=O)COCCOCCNC(=O)CC[C@H](NC(=O)CCCCCCCCCCCCCCCCCCC(=O)O)C(=O)O)C(=O)N[C@@H](CCCCN)C(=O)N[C@@H](C)C(=O)N[C@@H](C)C(=O)N[C@@H](CCC(N)=O)C(=O)N[C@@H](CCC(=O)O)C(=O)N[C@@H](Cc1ccccc1)C(=O)N[C@H](C(=O)N[C@@H](CCC(=O)O)C(=O)N[C@@H](Cc1c[nH]c2ccccc12)C(=O)N[C@@H](CC(C)C)C(=O)N[C@@H](CC(C)C)C(=O)N[C@@H](C)C(=O)N[C@H](CCC(=O)O)C(=O)NCC(=O)N1CCC[C@H]1C(=O)N[C@@H](CO)C(=O)N[C@@H](CO)C(=O)NCC(=O)N[C@@H](C)C(=O)N1CCC[C@H]1C(=O)N1CCC[C@H]1C(=O)N1CCC[C@H]1C(=O)N[C@@H](CO)C(N)=O)C(C)C [Compound 0142] (H-H[Aib]HGTFTSDLSI[αMeL]LEK([AEEA-AEEA-γGlu-C20 diacid])KAAQEFVEWLLA[dE]GPSSGAPPPS-NH2) | – | 0.007 nM | 5.52 mL/h/kg | 10.5 h
CC[C@H](C)[C@H](NC(=O)[C@H](CO)NC(=O)[C@H](CC(C)C)NC(=O)[C@H](CC(=O)O)NC(=O)[C@H](CO)NC(=O)[C@@H](NC(=O)[C@H](Cc1ccccc1)NC(=O)[C@@H](NC(=O)CNC(=O)[C@H](Cc1c[nH]cn1)NC(=O)C(C)(C)NC(=O)[C@@H](N)Cc1c[nH]cn1)[C@@H](C)O)[C@@H](C)O)C(=O)NC(C)(CC(C)C)C(=O)N[C@@H](CC(C)C)C(=O)N[C@@H](CCC(=O)O)C(=O)N[C@@H](CCCCNC(=O)COCCOCCNC(=O)COCCOCCNC(=O)CC[C@H](NC(=O)CCCCCCCCCCCCCCCCCCC(=O)O)C(=O)O)C(=O)N[C@@H](CCCCN)C(=O)N[C@@H](C)C(=O)N[C@@H](C)C(=O)N[C@@H](CCC(N)=O)C(=O)N[C@@H](CCC(=O)O)C(=O)N[C@@H](Cc1ccccc1)C(=O)N[C@H](C(=O)N[C@@H](CCC(=O)O)C(=O)N[C@@H](Cc1c[nH]c2ccccc12)C(=O)N[C@@H](CC(C)C)C(=O)N[C@@H](CC(C)C)C(=O)N[C@@H](C)C(=O)NCC(=O)NCC(=O)N1CCC[C@H]1C(=O)N[C@@H](CO)C(=O)N[C@@H](CO)C(=O)NCC(=O)N[C@@H](C)C(=O)N1CCC[C@H]1C(=O)N1CCC[C@H]1C(=O)N1CCC[C@H]1C(=O)N[C@@H](CO)C(N)=O)C(C)C (some centres unmarked) [Compound 0143] (H-H[Aib]HGTFTSDLSI[ξαMeL]LEK([AEEA-AEEA-γGlu-C20 diacid])KAAQEFVEWLLAGGPSSGAPPPS-NH2) | – | 0.004 nM | 2.82 mL/h/kg | 13.7 h
